What is called Ki is the equilibrium dissociation constant of an inhibitor or competing ligand from its target. As usually defined, the IC50 is the concentration that inhibits the measured activity by half.

One assay deals with T1, human A2AR (Homo sapiens, UniProt P29274).
T1 construct: expressed in transfected cells; host or cells: CHO cells
In words: Displacement of specific [3H]-NECA binding at human A2AR expressed in CHO cells. To be noted: [3H]-NECA displacement, means ± SE, read-out: hA2AR (Ki nM).

For a further assay, the target named is T2, human A3R (Homo sapiens, UniProt P0DMS8).
T2 construct: expressed in transfected cells; host or cells: CHO cells
T2 sequence (P0DMS8 1-318): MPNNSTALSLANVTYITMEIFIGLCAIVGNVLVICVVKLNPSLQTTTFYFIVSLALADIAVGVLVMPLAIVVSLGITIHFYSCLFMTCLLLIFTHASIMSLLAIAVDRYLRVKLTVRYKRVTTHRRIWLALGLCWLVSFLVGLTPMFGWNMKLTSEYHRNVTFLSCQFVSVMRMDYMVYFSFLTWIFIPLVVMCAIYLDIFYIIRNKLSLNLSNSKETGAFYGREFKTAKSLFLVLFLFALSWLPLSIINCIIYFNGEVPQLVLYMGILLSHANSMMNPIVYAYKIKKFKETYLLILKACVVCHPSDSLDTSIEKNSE
In words: Displacement of specific [3H]-HEMADO binding at human A3R expressed in CHO cells. As to conditions: [3H]-HEMADO displacement, means ± SE, read-out: hA3R (Ki nM).

The target in a further assay is T3, human A1R (Homo sapiens, UniProt P30542).
T3 construct: expressed in transfected cells; host or cells: CHO cells
T3 sequence (P30542 1-326): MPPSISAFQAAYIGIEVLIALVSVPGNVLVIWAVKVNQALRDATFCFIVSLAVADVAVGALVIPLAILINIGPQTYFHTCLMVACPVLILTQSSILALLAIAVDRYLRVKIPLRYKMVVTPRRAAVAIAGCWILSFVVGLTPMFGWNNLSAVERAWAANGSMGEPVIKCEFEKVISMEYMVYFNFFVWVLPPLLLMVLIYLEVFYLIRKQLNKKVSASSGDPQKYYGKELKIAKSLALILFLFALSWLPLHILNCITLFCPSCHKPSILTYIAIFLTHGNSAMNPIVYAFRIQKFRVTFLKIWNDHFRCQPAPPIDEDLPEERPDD
In words: Displacement of specific [3H]-CCPA binding at human A1R expressed in CHO cells. As to conditions: [3H]-CCPA displacement, means ± SE, read-out: hA1R (Ki nM).

Another assay addresses T4, hA2BR (Homo sapiens, UniProt P29275).
T4 construct: expressed in transfected cells; host or cells: cells stably expressing the receptor and the GloSensor biosensor (CHO)
T4 sequence (P29275 1-332): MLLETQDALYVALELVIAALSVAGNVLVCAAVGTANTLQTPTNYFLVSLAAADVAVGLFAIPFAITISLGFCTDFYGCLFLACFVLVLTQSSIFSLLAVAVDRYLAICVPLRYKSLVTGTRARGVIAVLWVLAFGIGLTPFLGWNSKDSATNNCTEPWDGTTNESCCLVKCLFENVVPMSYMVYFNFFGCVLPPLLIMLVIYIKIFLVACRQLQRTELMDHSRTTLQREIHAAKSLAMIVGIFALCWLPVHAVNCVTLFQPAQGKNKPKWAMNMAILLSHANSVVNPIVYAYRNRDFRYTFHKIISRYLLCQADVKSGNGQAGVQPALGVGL
Description: Inhibition of NECA-stimulated adenylyl cyclase activity in CHO cells expressing hA2BR (GloSensor cAMP assay). The class given is cell-based. As to conditions: means ± SE. How it is done: The activity of compounds understudy was evaluated using the GloSensor™ (Promega Corporation) cAMP assay, which is a new non-radioactive method offering a simple approach to monitor GPCR activity through change in the intracellular cAMP concentration. This assay uses a mutant form of Photinus pyralis luciferase into which a cAMP-binding protein moiety has been inserted. The binding with cAMP triggers a biosensor conformational change that leads to an increase of light output allowing to evaluate the activity of ligands at the receptor under study. Following pre-equilibration with a substrate, cells stably expressing both the receptor of interest and the biosensor can be used to evaluate GPCR function enabling easy kinetic measurements of cAMP accumulation or turnover in living cells.
The antagonist profile of the compounds on A2BR was evaluated by assessing their ability to counteract the agonist NECA-induced increase of cAMP accumulation. After 2 hours of equilibration in reaction medium cells were incubated in 384 well plate (10 minutes at room temperature) with 3 μL of different antagonist concentrations and then treated with 3 μL of a fixed dose of NECA. After another 10 minutes of incubation various luminescence reads were performed at different incubation times.
A general note: Cyclic AMP is a second messenger, typically raised through Gs and lowered through Gi signalling.

T1 sequence (P29274 whole entry): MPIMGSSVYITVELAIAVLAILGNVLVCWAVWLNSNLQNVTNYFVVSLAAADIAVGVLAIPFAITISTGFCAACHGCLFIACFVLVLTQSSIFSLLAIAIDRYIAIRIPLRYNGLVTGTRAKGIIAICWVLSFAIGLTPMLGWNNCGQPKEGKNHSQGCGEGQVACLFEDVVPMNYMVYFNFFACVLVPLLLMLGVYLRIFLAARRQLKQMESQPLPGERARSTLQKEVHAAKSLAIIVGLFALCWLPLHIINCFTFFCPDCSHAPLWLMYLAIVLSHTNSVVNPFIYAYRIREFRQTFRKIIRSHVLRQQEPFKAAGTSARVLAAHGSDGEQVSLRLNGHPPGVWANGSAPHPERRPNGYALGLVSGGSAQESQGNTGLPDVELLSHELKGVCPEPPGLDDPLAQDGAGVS

As to `COC(=O)c1c(C(=O)OC)c2cc(C(=O)OC(C)C)ccn2c1C(=O)c1ccccc1` [KNV-ISP1, 7-Isopropyl 1,2-dimethyl 3-benzoylindolizine-1,2,7-tricarboxylate], the Ki is 2690 ± 631 nM at human A2AR, 2200 ± 313 nM at human A3R and 1640 ± 37 nM at human A1R. This molecule also came in with a half-inhibitory concentration (IC50) against hA2BR above 30000 nM.

With `CCOC(=O)c1cc(C(=O)c2ccccc2)n2ccc(C(=O)OC(C)C)cc12` [KNV-ISP2, 1-Ethyl 7-isopropyl 3-benzoylindolizine-1,7-dicarboxylate], the inhibitory constant (Ki) is above 30000 nM at human A2AR, 3640 ± 837 nM at human A3R and 7050 ± 706 nM at human A1R. The IC50 at hA2BR is above 30000 nM.

Turning to `COC(=O)c1c(C(=O)OC)c2cc(C(=O)OC(C)C)ccn2c1C(=O)c1ccc(F)cc1` [KNV-ISP3, 7-Isopropyl 1,2-dimethyl 3-(4-fluorobenzoyl)indolizine-1,2,7-tricarboxylate], the Ki at human A2AR was found to be 3950 ± 695 nM; on human A3R, 1400 ± 348 nM; on human A1R it was 2710 ± 388 nM. This molecule registered an IC50 at hA2BR above 30000 nM.

`CCOC(=O)c1cc(C(=O)c2ccc(F)cc2)n2ccc(C(=O)OC(C)C)cc12` [KNV-ISP4, 1-Ethyl 7-isopropyl 3-(4-fluorobenzoyl)indolizine-1,7-dicarboxylate]: the results for the Ki at human A2AR, at human A3R and at human A1R were above 30000 nM, 665 ± 26 nM and 6980 ± 577 nM, respectively. In addition, on hA2BR, the concentration for half-maximal inhibition (IC50) is above 30000 nM.

For the molecule `COC(=O)c1c(C(=O)OC)c2cc(C(=O)OC(C)C)ccn2c1C(=O)c1ccc(Cl)cc1` [KNV-ISP5, 7-Isopropyl 1,2-dimethyl 3-(4-chlorobenzoyl)indolizine-1,2,7-tricarboxylate], the Ki turned out to be 7400 ± 833 nM at human A2AR, 7597 ± 29 nM at human A3R and 3712 ± 12 nM at human A1R. The molecule further had a half-inhibitory concentration (IC50) on hA2BR above 30000 nM.

With `CCOC(=O)c1cc(C(=O)c2ccc(Cl)cc2)n2ccc(C(=O)OC(C)C)cc12` [KNV-ISP6, 1-Ethyl 7-isopropyl 3-(4-chlorobenzoyl)indolizine-1,7-dicarboxylate], the figures for the Ki at human A2AR, on human A3R and on human A1R were above 30000 nM, 14300 ± 480 nM and above 30000 nM, respectively. Also, the concentration for half-maximal inhibition (IC50) at hA2BR is above 30000 nM.

On to `COC(=O)c1c(C(=O)OC)c2cc(C(=O)OC(C)C)ccn2c1C(=O)c1ccc(Br)cc1` [KNV-ISP7, 7-Isopropyl 1,2-dimethyl 3-(4-bromobenzoyl)indolizine-1,2,7-tricarboxylate], for which the Ki at human A2AR turned out to be 14900 ± 3750 nM; at human A3R, 1220 ± 339 nM; at human A1R, 5410 ± 711 nM. At hA2BR, this molecule had a 50% inhibitory concentration (IC50) above 30000 nM.

For the molecule `CCOC(=O)c1cc(C(=O)c2ccc(Br)cc2)n2ccc(C(=O)OC(C)C)cc12` [KNV-ISP8, 1-Ethyl 7-isopropyl 3-(4-bromobenzoyl)indolizine-1,7-dicarboxylate], the Ki is above 30000 nM at human A2AR, 1680 ± 283 nM at human A3R and above 30000 nM at human A1R. At hA2BR, the 50% inhibitory concentration (IC50) was above 30000 nM.

Regarding `COC(=O)c1c(C(=O)OC)c2cc(C(=O)OC(C)C)ccn2c1C(=O)c1ccc(C#N)cc1` [KNV-ISP9, 7-Isopropyl 1,2-dimethyl 3-(4-cyanobenzoyl)indolizine-1,2,7-tricarboxylate], the Ki on human A2AR is 10300 ± 1340 nM; on human A3R it was 6210 ± 338 nM; on human A1R, above 30000 nM. This molecule also had an IC50 on hA2BR above 30000 nM.

Consider `CCOC(=O)c1cc(C(=O)c2ccc(C#N)cc2)n2ccc(C(=O)OC(C)C)cc12` [KNV-ISP10, 1-Ethyl 7-isopropyl 3-(4-cyanobenzoyl)indolizine-1,7-dicarboxylate], for which the inhibitory constant (Ki) on human A2AR is above 30000 nM; on human A3R, 7670 ± 1730 nM; at human A1R, above 30000 nM. On hA2BR, the IC50 is above 30000 nM.

As to `COC(=O)c1c(C(=O)OC)c2cc(C(=O)OC(C)C)ccn2c1C(=O)c1ccc(C)cc1` [KNV-ISP11, 7-Isopropyl 1,2-dimethyl 3-(4-methylbenzoyl)indolizine-1,2,7-tricarboxylate], the inhibition constant Ki turned out to be 2921 ± 13 nM on human A2AR, 1600 ± 14 nM at human A3R and 692 ± 41 nM on human A1R. The IC50 against hA2BR is above 30000 nM.
